In US6863865B2, “Sterilization of pharmaceuticals” (Breath Limited, priority 2000, dated 2005):

Key:
[1] = cited from earlier work
[2] = HPLC evaluation of impurities after high temperature short time (HTST) sterilization; format: physicochemical; conditions: Fo exposures up to 24
Text: The formulation to be sterilized was passed through narrow lines of pharmaceutical quality stainless steel in which the sample was rapidly raised to an elevated temperature, maintained at this holding temperature for a period of time, then rapidly returned to ambient temperature. Parameters described in Table 1 are the BMRT (bulk mean retention time), that is the time between the sample being raised above ambient temperature and being returned to ambient temperature, and the FFERT, the time for which the sample is maintained at the elevated temperature. […] The theoretical kill rate, Fo, may be calculated from the FFERT and the elevated temperature. The value of Fo is optimally greater than 10, but values greater than 8 are acceptable for the production of sterile formulations.
This example was carried out to evaluate the effect of HTST on the chemical purity of pharmaceutical preparations by assessing the levels of degradation obtained in samples exposed to varying Fo (effective killing times) times. For the purposes of these experiments, budesonide suspensions were used in the evaluation.
The samples were then evaluated using high performance liquid chromatography to assess the level of impurities present.

[3] = Treatment with high intensity light (Pure-bright process); format: physicochemical; conditions: light at 900 times the intensity of sunlight at sea level; formulations produced as in Example 1
Text: An alternative method of sterilization of a budesonide suspension is treatment with high intensity light. The so-called “Pure-bright” process allows treatment with light at 900 times the intensity of sunlight at sea level.

SMILES: CCCC1O[C@@H]2C[C@H]3[C@@H]4CCC5=CC(=O)C=C[C@]5(C)[C@H]4[C@@H](O)C[C@]3(C)[C@]2(C(=O)CO)O1 (stereo partly drawn) [budesonide]
- stability to gamma-irradiation [1]: destroyed
- effect on chemical stability [2]: no adverse effect
- stability of budesonide to high intensity light [3]: completely destroyed
